Source: publication PMC5748751, “Study of Structure and Permeability Relationship of Flavonoids in Caco-2 Cells” (Nutrients, 2017)
Read-outs that look alike come from different tables or passages of the source. Marks after values point to notes of the source that are not given here.

Key:
Caco-2 cell monolayer [1] = assay: Cellular accumulation (CA) of flavonoids in Caco-2 cell monolayer; conditions: for Ratioc (ratio of CA B to A to CA A to B): Caco-2 monolayer; for CA A to B: accumulated in cell monolayer after transport apical to basolateral; for CA A to B / CA B to A: 40 μM, 1 h, normalized to cellular protein, mean ± SD, n = 3; for CA B to A: accumulated in cell monolayer after transport basolateral to apical; for CA: both sides (CA A to B and CA B to A)
Protocol: (§1) After the collection of samples from both AP and BL sides, the hanging insert was rinsed twice with ice-cold D-Hank’s buffer to stop further transport, and lysed with 0.1% Triton X-100 in D-Hank’s buffer then placed in an ultrasonic bath for 15 min. Cell lysates were collected and centrifuged at 7000× g for 10 min. Supernatants were analyzed by BCA kit (Dingguochangsheng Biotechnology, Beijing, China) for protein content. After protein content assay, supernatants were immediately frozen, lyophilized and preserved at −80 °C. The flavonoid concentration in lysis solution was determined by HPLC and normalized with cellular protein content.
(§2) To determine both the permeability and CA of flavonoids in Caco-2 cells, the lyophilized samples were dissolved in running 120 to 200 μL methanol, and centrifuged at 7000× g for 5 min. Aliquot of 20 μL of the supernatant solution was used for assay using Waters e2695 HPLC system (Milford, MA, USA) fitted with an Amethyst C18-H column (250 mm × 4.6 mm i.d., 5 μm; Sepax, Newark, DE, USA). The mobile phase consisted of A (0.01 M phosphoric acid (H3PO4))/B (acetonitrile) with 1.0 mL/min flow rate. […] Peak area measurement was used to obtain standard calibration curves to determine concentration of each flavonoid.

[2] = Stability of flavonoids in D-Hank's buffer relative to methanol; assay type: physicochemical; conditions: 20 μM flavonoid, HPLC peak area in D-Hank's / peak area in methanol × 100%
Protocol: The relative stability was expressed as the relative appearance of flavonoids in different solvents. Each flavonoid (20 μM) was dissolved in two different solvents, D-Hank’s and methanol. […] Relative concentration in D-Hank’s (%) = Peak area in D-Hank’s/Peak area in methanol × 100%(3)

[3] = Cell viability (MTT) assay of flavonoids in Caco-2 cells; assay type: cell-based; conditions: human
Protocol: The cytotoxicity of flavonoids and colchicine was evaluated by MTT assay. The cells were grown in 96-well plates at a density of 1 × 10^4 cells/well. After incubation with 40 μM flavonoid for 24 h, the cells were further incubated with an MTT solution (0.5 mg/mL) for 4 h at 37 °C. Finally, after removal of the supernatant, 150 μL dimethyl sulphoxide was added to each well to dissolve crystallized MTT. Absorbance was read at 570 nm with a multiskan spectrum microplate reader (Thermo Labsystems, Waltham, MA, USA). The percentage cell viability relative to that of the control cells was used as the cytotoxicity measure.

[4] = Permeability (bidirectional transport) of flavonoids in Caco-2 cell monolayers; assay type: in vitro ADME; conditions: human; for Papp A→B at 60 min, 40 μM: Caco-2, apical to basolateral; for Papp A→B at 60 min, 40 μM / Papp B→A at 60 min, 40 μM: incubation 60 min, 37 °C, D-Hank's pH 7.4, mean ± SD, n = 3–6; for Papp B→A at 60 min, 40 μM: Caco-2, basolateral to apical; for efflux ratio at 60 min, 40 μM: pH 7.4, Caco-2 monolayer, read-out: Ratiop (ratio of Papp B to A to Papp A to B); for Papp at 1 h, 40 μM: Caco-2 monolayer
Protocol: Caco-2 cells were cultured in MEM supplemented with 10% FBS, 1% NEAA, penicillin (100 U/mL) and streptomycin (100 μg/mL) in an atmosphere of 5% CO2 and 90% relative humidity at 37 °C. All cells used in this study were between passages 35 and 45 [16].
Caco-2 cells were seeded at a density of about 8 × 10^4 cells/cm^2 on a 12 wells Millicell hanging insert and left to grow for 19–21 days to reach confluence. Culture medium was replaced every other day for 14 days and daily thereafter. The integrity and transport ability of the Caco-2 cells monolayer were examined by measuring the trans-epithelial electrical resistance (TEER) with a Millicell voltammeter (Millicell ERS-2, Merck Millipore, Billerica, MA, USA) and running standard assays using Lucifer yellow CH as paracellular flux marker. […] Differentiation of Caco-2 cells was checked after 4 and 12 days by determining the activity of alkaline phosphatase with an assay kit (Nanjing Jiancheng Bioengineering Institute, Nanjing, China) and after 21 days transmission electron microscopy was performed on Caco-2 monolayer to evaluate differentiation.
The Caco-2 cell monolayer was washed with D-Hank’s buffer (pH 7.4). Then, the flavonoid (40 μM) was added to either the apical (AP, 0.4 mL) or basolateral (BL, 1.95 mL) side, while the receiving chamber contained the corresponding volume of D-Hank’s buffer and incubated for 1 h at 37 °C. Solutions from both AP and BL sides of Caco-2 cell monolayer were collected and immediately frozen, lyophilized and preserved at −80 °C for high performance liquid chromatography (HPLC) analysis. Papp was calculated from Equation (1), where ΔQ/Δt is the rate of the flavonoid on the accepting chamber (μM/s), A is the surface area of the hanging insert (cm^2) and C0 is the initial concentration of tested flavonoid in donating chamber (μM/mL).(1) Papp=ΔQ/Δt/AC0

[5] = Recovery (mass balance) of flavonoids during Caco-2 transport assay; assay type: in vitro ADME; conditions: human, Caco-2, mass balance, both sides of insert plus cells
Protocol: The recovery of the flavonoid glycosides during the transport assays was determined by mass balance and was measured as total amount of the flavonoids on both sides of the insert and in the Caco-2 cells.

Caco-2 cell monolayer [6] = conditions: human, Caco-2, 1 h, 40 μM, pH 7.4
Protocol: as §1, §2

[7] = pH 7.4, direction not specified (bilateral)
[8] = transport apical to basolateral, read-out: Recovery (A to B, %)
[9] = transport basolateral to apical, read-out: Recovery (B to A, %)
[10] = Caco-2, pH 7.4, as stated in text, direction not specified (bilateral)

SMILES: O=c1cc(-c2ccc(O)cc2)oc2cc(O)cc(O)c12 [Compound 6, Apigenin]
- Ratioc (ratio of CA B to A to CA A to B) (Caco-2 cell monolayer [1]): 1.72
- CA A to B (Caco-2 cell monolayer [1]): 4.415 ± 0.467 µmol/g
- CA B to A (Caco-2 cell monolayer [1]): 7.610 ± 0.694 ^b μmol/g
- Relative concentration of flavonoids, D-Hank's/methanol (%) [2]: 41.76%
- viability at 24 h, 40 μM [3]: 101 ± 4.56%
- Papp A→B at 60 min, 40 μM [4]: 171 ± 17.2 nm/s
- Papp B→A at 60 min, 40 μM [4]: 169 ± 10.2 nm/s
- efflux ratio at 60 min, 40 μM [4]: 0.99

SMILES: O=c1cc(-c2ccccc2)oc2cc(O)cc(O)c12 [Compound 7, Chrysin]
- Ratioc (ratio of CA B to A to CA A to B) (Caco-2 cell monolayer [1]): 2.26
- CA A to B (Caco-2 cell monolayer [1]): 3.902 ± 0.251 µmol/g
- CA B to A (Caco-2 cell monolayer [1]): 8.828 ± 0.213 ^b μmol/g
- Relative concentration of flavonoids, D-Hank's/methanol (%) [2]: 47.63%
- Relative concentration of flavonoids, D-Hank's/methanol (%) ([2]; listed as chrysin): less than 50%
- viability at 24 h, 40 μM [3]: 103 ± 4.94%
- Papp A→B at 60 min, 40 μM [4]: 67.8 ± 1.2 nm/s
- Papp B→A at 60 min, 40 μM [4]: 84.1 ± 6.2 nm/s
- efflux ratio at 60 min, 40 μM [4]: 1.24

SMILES: O=c1c(O)c(-c2cc(O)c(O)c(O)c2)oc2cc(O)cc(O)c12 [Compound 14, Myricetin]
- CA (Caco-2 cell monolayer [1]): not detected
- Relative concentration of flavonoids, D-Hank's/methanol (%) [2]: lower than 40%
- viability at 24 h, 40 μM [3]: 101 ± 3.15%
- Papp A→B at 60 min, 40 μM [4]: 2.9 ± 0.1 nm/s
- Papp B→A at 60 min, 40 μM [4]: 4.4 ± 0.1 nm/s
- efflux ratio at 60 min, 40 μM [4]: 1.5
- Papp at 1 h, 40 μM [4, 7]: < 5 nm/s

SMILES: C[C@@H]1O[C@@H](Oc2c(-c3ccc(O)c(O)c3)oc3cc(O)cc(O)c3c2=O)[C@H](O)[C@H](O)[C@H]1O [Compound 16, Quercitrin]
- CA (Caco-2 cell monolayer [1]): not detected
- Relative concentration of flavonoids, D-Hank's/methanol (%) [2]: 116.67%
- viability at 24 h, 40 μM [3]: 98.4 ± 3.86%
- Papp A→B at 60 min, 40 μM [4]: 42.4 ± 12.5 nm/s
- Papp B→A at 60 min, 40 μM [4]: 59.6 ± 12 nm/s
- Papp at 1 h, 40 μM [4, 7]: < 60 nm/s
- recovery [5, 8]: 90.7 ± 8.85%
- recovery [5, 9]: 76.8 ± 9.36%

SMILES: C[C@@H]1O[C@@H](OC[C@H]2O[C@@H](Oc3c(-c4ccc(O)c(O)c4)oc4cc(O)cc(O)c4c3=O)[C@H](O)[C@@H](O)[C@@H]2O)[C@H](O)[C@H](O)[C@H]1O [Compound 17, Rutin]
- CA (Caco-2 cell monolayer [1]): not detected
- Relative concentration of flavonoids, D-Hank's/methanol (%) [2]: 66.82%
- viability at 24 h, 40 μM [3]: 106 ± 5.48%
- Papp A→B at 60 min, 40 μM [4]: 40.4 ± 0.7 nm/s
- Papp B→A at 60 min, 40 μM [4]: 42.8 ± 4.4 nm/s
- Papp at 1 h, 40 μM [4, 10]: < 60 nm/s
- recovery [5, 8]: 98.2 ± 4.74%
- recovery [5, 9]: 97 ± 1.67%

SMILES: COc1ccc([C@@H]2CC(=O)c3c(O)cc(O)cc3O2)cc1O [Compound 18, Hesperetin]
- Ratioc (ratio of CA B to A to CA A to B) (Caco-2 cell monolayer [1]): 1.27
- CA A to B (Caco-2 cell monolayer [1]): 1.293 ± 0.086 µmol/g
- CA B to A (Caco-2 cell monolayer [1]): 1.644 ± 0.300 µmol/g
- Relative concentration of flavonoids, D-Hank's/methanol (%) [2]: 115.83%
- viability at 24 h, 40 μM [3]: 100 ± 2.7%
- Papp A→B at 60 min, 40 μM [4]: 235 ± 8.5 nm/s
- Papp B→A at 60 min, 40 μM [4]: 279 ± 27.6 nm/s
- Papp at 1 h, 40 μM [4, 10]: > 200 nm/s
- efflux ratio at 60 min, 40 μM [4]: 1.19

SMILES: O=C1C[C@@H](c2ccc(O)cc2)Oc2cc(O)cc(O)c21 [Compound 19, Naringenin]
- Ratioc (ratio of CA B to A to CA A to B) (Caco-2 cell monolayer [1]): 2.29
- CA A to B (Caco-2 cell monolayer [1]): 1.935 ± 0.305 µmol/g
- CA B to A (Caco-2 cell monolayer [1]): 4.436 ± 0.299 ^b μmol/g
- CA (Caco-2 cell monolayer [1]): < 5 µmol/g
- Relative concentration of flavonoids, D-Hank's/methanol (%) [2]: 113.93%
- viability at 24 h, 40 μM [3]: 95.6 ± 3.47%
- Papp A→B at 60 min, 40 μM [4]: 321 ± 29.8 nm/s
- Papp B→A at 60 min, 40 μM [4]: 353 ± 11.6 nm/s
- Papp at 1 h, 40 μM [4, 10]: > 300 nm/s
- efflux ratio at 60 min, 40 μM [4]: 1.1

SMILES: O=C1C[C@@H](c2ccc(O)cc2)Oc2cc(O)ccc21 [Compound 21, Liquiritigenin]
- CA (Caco-2 cell monolayer [6]): < 5 µmol/g
- CA A to B (Caco-2 cell monolayer [1]): 0.635 ± 0.146 µmol/g
- CA B to A (Caco-2 cell monolayer [1]): 1.234 ± 0.249 ^a μmol/g
- viability at 24 h, 40 μM [3]: 101 ± 4.27%
- Papp A→B at 60 min, 40 μM [4]: 310 ± 8 nm/s
- Papp B→A at 60 min, 40 μM [4]: 370 ± 19.7 nm/s
- Papp at 1 h, 40 μM [4, 10]: > 300 nm/s

SMILES: O=c1c(-c2ccc(O)cc2)coc2c([C@@H]3O[C@H](CO)[C@@H](O)[C@H](O)[C@H]3O)c(O)ccc12 [Compound 24, Puerarin]
- CA (Caco-2 cell monolayer [1]): not detected
- Relative concentration of flavonoids, D-Hank's/methanol (%) [2]: 30.31%
- viability at 24 h, 40 μM [3]: 105 ± 6.13%
- Papp A→B at 60 min, 40 μM [4]: 22.5 ± 9.6 nm/s
- Papp B→A at 60 min, 40 μM [4]: 27 ± 4.1 nm/s
- Papp at 1 h, 40 μM [4, 10]: < 60 nm/s
- recovery [5, 8]: 87.4 ± 3.31%
- recovery [5, 9]: 85.25 ± 0.6%
